Measurements from patent US12109245B2, “Extract of aerial parts of Maca rich in polyphenols and composition comprising same” (LABORATOIRES EXPANSCIENCE, priority 2010, dated 2024).

Key:
Type in all cases: cell-based
Jurkat cell lines = assay: UV-induced lipid peroxidation (C11-Fluor probe, flow cytometry); settings: 100 μM BHT
Experimental: Jurkat cell lines were pre-incubated for 45 minutes in the presence of 0.005% and 0.01% (w/v of active substance) Maca leaf extract (MC) or 100 μM BHT (reference) and in the presence of the C11-Fluor fluorescent probe, specific for lipid peroxidation.
The cells were then irradiated with UVA+B and incubated for 30 minutes in the presence of MC or BHT.
At the end of incubation, the quantity of lipid peroxides was evaluated by means of a flow cytometry analysis of the fluorescence intensity (inversely proportional to oxidation).
The results were analysed were analysed statistically using a Student's t test.

Human neutrophils = assay: Release of elastase by neutrophils; settings: 10 μg/ml Boswellic acid
Experimental: Human neutrophils were treated for 15 minutes with 0.005 and 0.01% (w/v of active substance) Maca leaf extract (MC) or with 10 μg/ml Boswellic acid (reference) and stimulated with 1 μM calcium ionophore A23187, for 10 minutes. The release of elastase was evaluated by measuring the elastase activity with a spectrophotometric method. The results were analysed statistically using a Student's t test.

Normal human adipocytes = assay: Evaluation of lipogenesis in adipocytes ([14C]-acetate incorporation); settings: 20 μM cerulenin
Experimental: Normal human adipocytes were incubated for 1 hour in the presence of 0.005% and 0.01% (w/v of active substance) Maca leaf extract or reference (20 μM cerulenin). After incubation, the radioactive marker [^14C]-acetate was added and the samples were incubated overnight.
At the end of incubation, the lipids were extracted and the incorporated radioactivity (corresponding to lipogenesis) was measured by means of liquid scintillation.
The results were analysed statistically using a Student's t test.

[1] = tested on: Human keratinocytes (NCTC-2544 line); assay: PMA-induced IL8 and PGE2 production by keratinocytes (ELISA)
Experimental: The cells were then treated with 0.1 μg/ml PMA (Phorbol Myristate Acetate) for 24 hours, also in the presence of MC or the references. Following the treatment, the quantities of IL8 (interleukin8) and PGE2 (prostaglandin E2) secreted were measured by means of ELISA in the culture supernatants. The results were analysed statistically using a Student's t test.

[2] = tested on: Normal human dermal fibroblasts; assay: Gene expression of dermal matrix markers in fibroblasts (real-time RT-PCR); settings: 5 ng/ml TGFβ1, 24 hours
Experimental: Normal human dermal fibroblasts were treated for 24 hours with 0.002% and 0.005% (w/v of active substance) Maca leaf extract (MC) or with 5 ng/ml TGFβ1 (reference).
At the end of incubation, the gene expression of various dermal matrix markers was analysed by means of real-time RT-PCR.
The results were analysed statistically by means of a one-factor ANOVA followed by a Dunnett test.

Molecule: Cc1cc(C(C)(C)C)c(O)c(C(C)(C)C)c1 [BHT]
- Protection (%) against UV-induced lipid peroxidation (Jurkat cell lines): 49%
- Lipid peroxidases (% irradiated reference) (Jurkat cell lines; UVA+B irradiated cells = 100): 64%

Molecule: C[C@H]1[C@H](C)CC[C@]2(C)CC[C@]3(C)C(=CC[C@@H]4[C@@]5(C)CC[C@@H](O)[C@](C)(C(=O)O)[C@@H]5CC[C@]43C)[C@H]12 [Boswellic acid]
- Elastase (net release; %) (Human neutrophils; 15 minutes, 1 μM calcium ionophore A23187 = 100): 50.90 ± 7.49%
- inhibition at 10 µg/mL (Human neutrophils; Homo sapiens, Neutrophil): 49%

Molecule: C/C=C/C/C=C/CCC(=O)[C@H]1O[C@H]1C(N)=O [Cerulenin, cerulenin]
- Acetate incorporation (cpm) (Normal human adipocytes; control cells 32895 ± 1358): 14934 ± 671 cpm
- inhibition at 20 µM (Normal human adipocytes; Homo sapiens, Adipocyte): 55%

Molecule: C[C@@H]1C[C@H]2[C@@H]3CCC4=CC(=O)C=C[C@]4(C)[C@@]3(F)[C@@H](O)C[C@]2(C)[C@@]1(O)C(=O)CO [dexamethasone]
- IL8 Inhibition ([1]; 10−7M dexamethasone, 0.1 μg/ml PMA): 85%
- IL8 production ([1]; 10−7M dexamethasone, 0.1 μg/ml PMA 24 hours (PMA alone 50.1 ± 1.8)): 7.4 ± 0.08 ng/ml %

Molecule: COc1ccc2c(c1)c(CC(=O)O)c(C)n2C(=O)c1ccc(Cl)cc1 [indometacin]
- PGE2 Inhibition ([1]; 10−6M indometacin, 0.1 μg/ml PMA): 100%
- PGE2 production ([1]; 10−6M indometacin, 0.1 μg/ml PMA 24 hours (PMA alone 138.4 ± 10.6)): 0.039 ± 0.0 ng/ml %

Molecule: TGFβ1: 5 ng/ml TGFβ1 (reference) in the dermal fibroblast test
- Collagen I gene expression, change vs control [2]: +40%
- Dermatopontin gene expression, change vs control [2]: +34%
- Elastin gene expression, change vs control [2]: +57%
- Fibronectin gene expression, change vs control [2]: +141%
- MMP1 gene expression, change vs control [2]: −78%
- Collagen I gene expression (Relative Quantity) ([2]; control = 1.00): 1.40
- Dermatopontin gene expression (Relative Quantity) ([2]; control = 1.00): 1.34
- Elastin gene expression (Relative Quantity) ([2]; control = 1.00): 1.57
- Fibronectin gene expression (Relative Quantity) ([2]; control = 1.00): 2.41
- MMP1 gene expression (Relative Quantity) ([2]; control = 1.00): 0.22
